According to PMC12040169 (PLOS Biology, 2025):

Assay: in vitro
Conditions: human, hela cells

Compared with `CC(C)CN(/C=N/c1nc(OC(=O)N(c2ccccc2)c2ccccc2)nc2c1ncn2C1CC(O)C(CO)O1)CC(C)C` (stereo not drawn) [CBK201170], `Nc1ncnc2c1ccn2[C@@H]1O[C@H](CO)[C@H](O)C1O` (stereo partly drawn) [CBK201176] is lower in viability at 28.5 h, 10 µM: 93% for the first, 0% for the second.

Same assay, conditions: human, hela cells, % viability

First: O=C(c1cnccc1C(F)(F)F)N1CCc2ccccc21 [CBK200401]
Second: O=C(c1ccno1)N1CCc2ccccc21 [CBK200409]
The viability at 28.5 h, 10 µM of the first is higher: 112% for the first, 104% for the second.

Compared with `O=C(c1ccc2ncccc2c1)N1CCc2ccccc21` [CBK200403], `O=C(c1ccc2ccccc2n1)N1CCc2ccccc21` [CBK200404] is higher in viability at 28.5 h, 10 µM: 81.8% for the first, 94% for the second.

First: Cn1cc(C(=O)N2CCc3ccccc32)c2ccccc21 [CBK200407]
Second: CCOc1ccsc1C(=O)N1CCc2ccccc21 [CBK200410]
The viability at 28.5 h, 10 µM of the first is lower: 80.6% for the first, 100% for the second.

Going from `O=C(c1csnn1)N1CCc2ccccc21` [CBK200408] to `O=C(CCN1CCCCC1)N1CCc2ccccc21` [CBK200413], the viability at 28.5 h, 10 µM rises from 86% to 91.1%.

Going from `COC(=O)N1CCN(c2ccccc2)CC1` [CBK200414] to `CN1CCN(c2ccc(NC(=O)c3cc4oc(-c5ccccc5)nc4c(=O)n3C)cc2)CC1` [CBK200425], the viability at 28.5 h, 10 µM rises from 85.5% to 94.9%.

Going from `C[C@@H]1CN(C(=O)OCCc2cccs2)C[C@H](C)O1` [CBK200416] to `Cc1ncsc1CCOC(=O)N1C[C@@H](C)O[C@@H](C)C1` [CBK200418], the viability at 28.5 h, 10 µM rises from 95.5% to 96.3%.

Compared with `CN1CCN(CCOC(=O)N2CCN(C(c3ccccc3)c3ccccc3)CC2)CC1` [CBK200419], `CN1CCN(C(=O)c2ccc(-c3cnc(N)c(-c4ccc(O)cc4)n3)cc2F)CC1` [CBK200421] is higher in viability at 28.5 h, 10 µM: 89% for the first, 90.6% for the second.

Compared with `Nc1ncc(-c2cccc(C(=O)O)c2)nc1-c1ccc(O)cc1` [CBK200420], `Nc1ncc(-c2ccc(C(=O)N3CCOCC3)cc2)nc1-c1ccsc1` [CBK200422] is higher in viability at 28.5 h, 10 µM: 107% for the first, 110% for the second.

Compared with `O=C(O)c1cccc(NS(=O)(=O)c2cc3ccccc3o2)c1` [CBK200423], `CN1CCC(N(C)C(=O)c2cc3oc(-c4ccccc4)nc3c(=O)n2C)C1` (stereo not drawn) [CBK200424T] is lower in viability at 28.5 h, 10 µM: 97.4% for the first, 93.9% for the second.

First: CNc1ncnc2c1ncn2[C@@H]1O[C@H](CO)[C@@H](O)[C@H]1O [CBK200610]
Second: O=c1[nH]cnc2c1ncn2[C@@H]1O[C@H](CO)[C@H](O)C1O (stereo partly drawn) [CBK201186]
The viability at 28.5 h, 10 µM of the first is higher: 101% for the first, 98.3% for the second.

First: Cn1c(=O)c2c(ncn2CC(O)CO)n(C)c1=O (stereo not drawn) [CBK200637]
Second: Cn1c(N)nc2c(ncn2[C@H]2C[C@@H](O)[C@@H](CO)O2)c1=O [CBK201215]
The viability at 28.5 h, 10 µM of the first is lower: 98.5% for the first, 105% for the second.

Compared with `CN(C)CC/C=C1/c2ccccc2COc2ccc(CC(=O)O)cc21` [CBK200992], `O=[N+]([O-])c1ccc2c(ccn2C2CC(O)C(CO)O2)c1` (stereo not drawn) [CBK201163] is higher in viability at 28.5 h, 10 µM: 92.4% for the first, 95% for the second.

First: Nc1nccc2c1ncn2[C@H]1C[C@@H](O)[C@@H](CO)O1 [CBK201157]
Second: Nc1cc2c(ncn2[C@@H]2C[C@@H](O)[C@@H](CO)O2)c(=O)[nH]1 [CBK201196]
The viability at 28.5 h, 10 µM of the first is higher: 97.1% for the first, 88.1% for the second.

Compared with `O=c1cnn([C@H]2C[C@@H](O)[C@@H](CO)O2)c(=O)[nH]1` [CBK201162], `Cc1nn([C@H]2C[C@@H](O)[C@@H](CO)O2)c(=O)[nH]c1=O` [CBK201185] is higher in viability at 28.5 h, 10 µM: 93.4% for the first, 97.3% for the second.

Going from `COC1C(O)C(CO)OC1n1ccc(=O)[nH]c1=O` (stereo not drawn) [CBK201166] to `COC1C(O)C(CO)OC1n1cc(F)c(=S)[nH]c1=O` (stereo not drawn) [CBK201168], the viability at 28.5 h, 10 µM rises from 93.6% to 96%.

First: OC[C@H]1O[C@@H](n2cnc3c(Cl)ncnc32)C[C@H]1O [CBK201167]
Second: OC[C@H]1O[C@@H](n2cnc3cncnc32)C[C@H]1O [CBK201243]
The viability at 28.5 h, 10 µM of the first is lower: 99.6% for the first, 113% for the second.

Going from `Nc1nc2c(ncn2[C@@H]2O[C@H](CO)[C@H](O)C2O)c(=O)[nH]1` (stereo partly drawn) [CBK201173] to `O=c1[nH]cnc2c1cnn2[C@@H]1O[C@H](CO)[C@H](O)C1O` (stereo partly drawn) [CBK201245], the viability at 28.5 h, 10 µM falls from 96% to 95.8%.

First: CN(C)/C=N/c1ncc2ncn(C3CC(O)C(CO)O3)c2n1 (stereo not drawn) [CBK201175]
Second: CCNc1nc2c(ncn2C2CC(O)C(CO)O2)c(=O)[nH]1 (stereo not drawn) [CBK201189]
The viability at 28.5 h, 10 µM of the first is lower: 90.8% for the first, 99.6% for the second.

First: COc1nc(N)nc2c1ccn2C1CC(O)C(CO)O1 (stereo not drawn) [CBK201177]
Second: Nc1nc2c(ncn2[C@H]2C[C@@H](O)[C@@H](CO)O2)c(=S)[nH]1 [CBK201213]
The viability at 28.5 h, 10 µM of the first is higher: 98.6% for the first, 59.3% for the second.

Going from `CC#Cc1cn([C@H]2C[C@@H](O)[C@@H](CO)O2)c(=O)[nH]c1=O` [CBK201182] to `C#Cc1cn([C@H]2C[C@@H](O)[C@@H](CO)O2)c(=O)[nH]c1=O` [CBK201207], the viability at 28.5 h, 10 µM falls from 104% to 87.8%.

First: Cc1cc(C)c(Oc2nc(=O)n([C@H]3C[C@@H](O)[C@@H](CO)O3)cc2F)c(C)c1 [CBK201184]
Second: Cc1cn([C@H]2C[C@@H](O)[C@@H](CO)O2)c(=O)nc1-n1cncn1 [CBK201235]
The viability at 28.5 h, 10 µM of the first is higher: 96.4% for the first, 82.9% for the second.

Compared with `Nc1nc2c([C@H]3C[C@@H](O)[C@@H](CO)O3)c[nH]c2c(=O)[nH]1` [CBK201194], `Nc1ncc([C@H]2C[C@@H](O)[C@@H](CO)O2)c(=O)[nH]1` [CBK201246] is lower in viability at 28.5 h, 10 µM: 102% for the first, 79.8% for the second.

First: Cc1cn([C@H]2C[C@@H](O)[C@@H](CI)O2)c(=O)[nH]c1=O [CBK201197]
Second: O=c1[nH]c(=O)n([C@H]2C[C@@H](O)[C@@H](CO)O2)cc1CCO [CBK201239]
The viability at 28.5 h, 10 µM of the first is lower: 96.9% for the first, 99.6% for the second.

Going from `CC(C)CNc1nc2c(ncn2[C@H]2C[C@@H](O)[C@@H](CO)O2)c(=O)[nH]1` [CBK201198] to `CC(C)C(=O)Nc1nc2c([nH]c(=O)n2[C@H]2C[C@@H](O)[C@@H](CO)O2)c(=O)[nH]1` [CBK201202], the viability at 28.5 h, 10 µM rises from 94.8% to 98.4%.

Compared with `Cc1cn(C2CC(O)C(CO)O2)c(=O)nc1SCCC#N` (stereo not drawn) [CBK201201], `Nc1nc2nn([C@H]3C[C@@H](O)[C@@H](CO)O3)cc2c(=O)[nH]1` [CBK201218] is lower in viability at 28.5 h, 10 µM: 97.5% for the first, 90.3% for the second.

First: N#Cc1cn([C@@H]2O[C@H](CO)[C@H](O)C2O)c2ncnc(N)c12 (stereo partly drawn) [CBK201204]
Second: Nc1ncnc2c1nnn2[C@@H]1O[C@H](CO)[C@H](O)C1O (stereo partly drawn) [CBK201228]
The viability at 28.5 h, 10 µM of the first is lower: 18% for the first, 30% for the second.

Compared with `O=c1ccn([C@@H]2O[C@H](CO)[C@H](O)C2O)c(=S)[nH]1` (stereo partly drawn) [CBK201210], `O=c1[nH]cnc2c([C@@H]3O[C@H](CO)[C@H](O)C3O)n[nH]c12` (stereo partly drawn) [CBK201242] is higher in viability at 28.5 h, 10 µM: 91.8% for the first, 98.1% for the second.

Going from `Nc1ncnc2c1nc(N)n2[C@H]1C[C@@H](O)[C@@H](CO)O1` [CBK201222] to `Nc1ncnc2c1nc(Br)n2[C@H]1C[C@@H](O)[C@@H](CO)O1` [CBK201240], the viability at 28.5 h, 10 µM rises from 101% to 103%.

First: Nc1nc2c(cnn2[C@H]2C[C@@H](O)[C@@H](CO)O2)c(=O)[nH]1 [CBK201223]
Second: COC(=O)/C=C/c1cn(C2CC(O)C(CO)O2)c(=O)[nH]c1=O (stereo not drawn) [CBK201244]
The viability at 28.5 h, 10 µM of the first is lower: 101% for the first, 105% for the second.

Compared with `O=[N+]([O-])c1ccn(C2CC(O)C(CO)O2)c1` (stereo not drawn) [CBK201229], `COC1C(O)C(CO)OC1n1cnc2c(N)nc(N)nc21` (stereo not drawn) [CBK201241] is higher in viability at 28.5 h, 10 µM: 83.7% for the first, 95.4% for the second.

In the case of `O=C(/C=C/c1cn(C2OC(CO)C(O)C2O)c(=O)[nH]c1=O)NCCCCCCNC(=O)C(F)(F)F` (stereo not drawn) [CBK201231], the viability at 28.5 h, 10 µM is reported as 99.1%.
